Experimental data: US10172814B2, “Substituted pyridyl-cycloalkyl-carboxylic acids, compositions containing them and medical uses thereof” (BAYER PHARMA AKTIENGESELLSCHAFT, priority 2014, dated 2019)

Molecular target: human PTGES (Homo sapiens (Human), UniProt O14684)
Assay: Human PTGES biochemical enzyme inhibition assay (conversion of PGH2 to PGE2, TR-FRET)
Settings: Enzymatic conversion of PGH2 to PGE2; read-out: Human PTGES IC50
Experimental: Human PTGES Biochemical Enzyme Inhibition Assay:
PTGES (Microsomal prostaglandin E synthase 1) is an enzyme that converts prostaglandin H2 (PGH2) to prostaglandin E2 (PGE2) in the presence of reduced glutathione (GSH).
Recombinant proteins (human isoforms) of PTGES containing a FLAG tag, expressed in baculovirus infected insect cells (Hi-5) and purified by affinity chromatography was used as enzyme in the assay. Substrate was prostaglandin H2 (Cayman Chemicals).
4 ul of a solution of human PTGES in assay buffer [100 mM sodium phosphate pH 7.2, 2.5 mM Glutathion reduced, 1 mM EDTA, 0.01% BSA, 0.4 mM DTT, 0.15 mM n-dodecylmaltoside] was added to the well containing test compound and incubated for 15-20 minutes to allow binding of the compound to the enzyme prior to the enzymatic reaction. The reaction was started by addition of 1 ul of an ice cold solution containing PGH2 (40 nM in assay buffer resulting in a final concentration of 8 nM PGH2 in the assay). […] The concentration of each isoform of PTGES was adapted to the activity of the respective enzyme preparation to maintain linear reaction properties within the reaction time. […] The reaction was stopped by addition of 1 ul of a solution containing 15 mM SnCl2 and 400 mM KF in water. SnCl2 converts the remaining unstable PGH2 to stable PGF2alpha. Then, 3 ul of the a first detection solution containing PGE2-D2 (Cisbio Bioassays, TR-FRET reagent, diluted according to the manufacturer's recommendation, typically 1:20 in reconstitution buffer) was added. […] The resulting mix was incubated overnight at 4° C. to allow the formation of a complex of PGE2 and the detection reagents. […] Dilution series were made prior to the assay in a 100 fold concentrated form by serial dilution. IC50 values were calculated by 4-Parameter fitting.

Chain of human PTGES (O14684 whole entry): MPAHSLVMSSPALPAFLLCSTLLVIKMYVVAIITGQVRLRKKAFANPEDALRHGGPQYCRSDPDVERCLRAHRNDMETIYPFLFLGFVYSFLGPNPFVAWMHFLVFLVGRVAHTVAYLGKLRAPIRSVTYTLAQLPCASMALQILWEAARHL

SMILES | IC50 [µM]
CCOc1cncc(-c2ccc(C(C(=O)Nc3cccc(CCC(=O)O)c3C)C3CCCC3)cc2)c1 (racemic) [Example 8, (R/S) 3-[3-({Cyclopentyl[4-(5-ethoxypyridin-3-yl)phenyl]acetyl}amino)-2-methylphenyl]propanoic acid] | 0.16
Cc1c(CCC(=O)O)cccc1NC(=O)C(c1ccc(-c2cncc(C(C)(C)O)c2)cc1)C1CCCC1 (racemic) [Example 9, (R/S) 3-{3-[(Cyclopentyl{4-[5-(2-hydroxypropan-2-yl)pyridin-3-yl]phenyl}acetyl)amino]-2-methylphenyl}propanoic acid] | 3.56
COCc1cncc(-c2ccc(C(C(=O)Nc3cccc(CCC(=O)O)c3C)C3CCCC3)cc2)c1 (racemic) [Example 10, (R/S) 3-{3-[(Cyclopentyl{4-[5-(methoxymethyl)pyridin-3-yl]phenyl}acetyl)amino]-2-methylphenyl}propanoic acid] | 0.47
COc1cncc(-c2ccc(C(C(=O)Nc3cccc(CCC(=O)O)c3C)C3CCCC3)cc2)c1 (racemic) [Example 11, (R/S) 3-[3-({Cyclopentyl[4-(5-methoxypyridin-3-yl)phenyl]acetyl}amino)-2-methylphenyl]propanoic acid] | 0.341
CCc1cncc(-c2ccc(C(C(=O)Nc3cccc(CCC(=O)O)c3C)C3CCCC3)cc2)c1 (racemic) [Example 13, (R/S) 3-[3-({Cyclopentyl[4-(5-ethylpyridin-3-yl)phenyl]acetyl}amino)-2-methylphenyl]propanoic acid] | 0.0782
Cc1c(CCC(=O)O)cccc1NC(=O)C(c1ccc(-c2cncc(C3CC3)c2)cc1)C1CCCC1 (racemic) [Example 14, (R/S) 3-[3-({Cyclopentyl[4-(5-cyclopropylpyridin-3-yl)phenyl]acetyl}amino)-2-methylphenyl]propanoic acid] | 0.115
Cc1c(CCC(=O)O)cccc1NC(=O)C(c1ccc(-c2cncc(OC3CCOCC3)c2)cc1)C1CCCC1 (racemic) [Example 15, (R/S) 3-{3-[(Cyclopentyl{4-[5-(tetrahydro-2H-pyran-4-yloxy)pyridin-3-yl]phenyl}acetyl)amino]-2-methylphenyl}propanoic acid] | 0.114
Cc1c(CCC(=O)O)cccc1NC(=O)C(c1ccc(-c2cncc(Cl)c2)cc1)C1CCCC1 (racemic) [Example 16, (R/S) 3-[3-({[4-(5-Chloropyridin-3-yl)phenyl](cyclopentyl)acetyl}amino)-2-methylphenyl]propanoic acid] | 0.0596
COc1ccc(-c2ccc(C(C(=O)Nc3cccc(CCC(=O)O)c3C)C3CCCC3)cc2)cn1 (racemic) [Example 18, (R/S) 3-[3-({Cyclopentyl[4-(6-methoxypyridin-3-yl)-phenyl]acetyl}amino)-2-methylphenyl]propanoic acid] | 0.236
Cc1c(CCC(=O)O)cccc1NC(=O)C(c1ccc(-c2ccc(F)nc2)cc1)C1CCCC1 (racemic) [Example 19, (R/S) 3-[3-({Cyclopentyl[4-(6-fluoropyridin-3-yl)-phenyl]acetyl}amino)-2-methylphenyl]propanoic acid] | 0.552
COc1ncccc1-c1ccc(C(C(=O)Nc2cccc(CCC(=O)O)c2C)C2CCCC2)cc1 (racemic) [Example 20, (R/S) 3-[3-({Cyclopentyl[4-(2-methoxypyridin-3-yl)-phenyl]acetyl}amino)-2-methylphenyl]propanoic acid] | 2.55
Cc1cncc(-c2ccc(C(C(=O)Nc3cccc(CCC(=O)O)c3C)C3CCCC3)cc2)c1 (racemic) [Example 21, (R/S) 3-[3-({Cyclopentyl[4-(5-methylpyridin-3-yl)-phenyl]acetyl}amino)-2-methylphenyl]propanoic acid] | 0.161
Cc1c(CCC(=O)O)cccc1NC(=O)C(c1ccc(-c2cccnc2F)cc1)C1CCCC1 (racemic) [Example 23, (R/S) 3-[3-({cyclopentyl[4-(2-fluoro-pyridin-3-yl)-phenyl]-acetyl}amino)-2-methyl-phenyl]propanoic acid] | 5.26
Cc1cc(-c2ccc(C(C(=O)Nc3cccc(CCC(=O)O)c3C)C3CCCC3)cc2)cnc1C (racemic) [Example 27, (R/S) 3-[3-({Cyclopentyl[4-(5,6-dimethylpyridin-3-yl)phenyl]acetyl}amino)-2-methylphenyl]propanoic acid] | 0.0903
Cc1c(CCC(=O)O)cccc1NC(=O)C(c1ccc(-c2cncc(OC(F)F)c2)cc1)C1CCCC1 (racemic) [Example 28, (R/S) 3-{3-[(Cyclopentyl{4-[5-(difluoromethoxy)pyridin-3-yl]phenyl}acetyl)amino]-2-methylphenyl}propanoic acid] | 0.38
Cc1c(CCC(=O)O)cccc1NC(=O)C(c1ccc(-c2cncc(C(F)F)c2)cc1)C1CCCC1 (racemic) [Example 29, (R/S) 3-{3-[(Cyclopentyl{4-[5-(difluoromethyl)pyridin-3-yl]phenyl}acetyl)amino]-2-methylphenyl}propanoic acid] | 0.0782
Cc1c(CCC(=O)O)cccc1NC(=O)C(c1ccc(-c2cncc(CF)c2)cc1)C1CCCC1 (racemic) [Example 30, (R/S) 3-{3-[(Cyclopentyl{4-[5-(fluoromethyl)pyridin-3-yl]phenyl}acetyl)amino]-2-methylphenyl}propanoic acid] | 0.188
Cc1c(CCC(=O)O)cccc1NC(=O)C(c1ccc(-c2cncc(Cl)c2)cc1)C1CC1 (racemic) [Example 31, (R/S) 3-[3-({[4-(5-Chloropyridin-3-yl)phenyl](cyclopropyl)acetyl}amino)-2-methylphenyl]propanoic acid] | 0.443
Cc1c(CCC(=O)O)cccc1NC(=O)C(c1ccc(-c2cncc(C(F)(F)F)c2)cc1)C1CC1 (racemic) [Example 32, (R/S) 3-{3-[(Cyclopropyl{4-[5-(trifluoromethyl)pyridin-3-yl]phenyl}acetyl)amino]-2-methylphenyl}propanoic acid] | 0.47
Cc1c(NC(=O)C(c2ccc(-c3cncc(C(F)(F)F)c3)cc2)C2CCCC2)cccc1OCC(=O)O (racemic) [Example 33, (R/S) {3-[(Cyclopentyl{4-[5-(trifluoromethyl)pyridin-3-yl]phenyl}acetyl)amino]-2-methylphenoxy}acetic acid] | 0.0143
COc1ccc(NC(=O)C(c2ccc(-c3cncc(C(F)(F)F)c3)cc2)C2CCCC2)c(C)c1CCC(=O)O (racemic) [Example 40, (R/S) 3-{3-[(Cyclopentyl{4-[5-(trifluoromethyl)pyridin-3-yl]phenyl}acetyl)amino]-6-methoxy-2-methylphenyl}propanoic acid] | 0.0282
Cc1cc(C(C(=O)Nc2cccc(CCC(=O)O)c2C)C2CCCC2)ccc1-c1cncc(C(F)(F)F)c1 (racemic) [Example 41, (R/S) 3-{3-[(Cyclopentyl{3-methyl-4-[5-(trifluoromethyl)pyridin-3-yl]phenyl}acetyl)amino]-2-methylphenyl}propanoic acid] | 0.0192
CCOc1cncc(-c2ccc(C(C(=O)Nc3cccc(CCC(=O)O)c3C)C3CCCC3)cc2F)c1 (racemic) [Example 46, (R/S) 3-[3-({Cyclopentyl[4-(5-ethoxypyridin-3-yl)-3-fluorophenyl]acetyl}amino)-2-methylphenyl]propanoic acid] | 0.0553
